Source: patent publication US20250136606A1, “MODULATORS OF TRPML, THEIR COMPOSITIONS AND METHODS OF USE” (Caraway Therapeutics, Inc., priority 2021, published 2025)
Like-named read-outs stand apart in the source and are kept apart here.

Experiments:
TRPML1 = TRPML1 (Homo sapiens, UniProt Q9GZU1); experiment: Fluorescent TRPML1 assay (Fluo4-AM calcium fluorescence in doxycycline-induced HEK-293 Trex cells); assay type: cell-based
Experimental: (§1) HEK-293 Trex cells were stably transfected with a construct consisting of the human coding sequence for TRPML1 cloned into the […] plasmid pCDNA5 T/O. Mutations were introduced into the TRPML1 sequence to facilitate expression on the cell surface (Silvia Vergarajauregui, Rosa Puertollano, Traffic. 2006 March; 7(3): 337-353). Briefly, the cells are cultured in 150 mm round tissue culture dishes containing 20 mL of media. The day before the assay the cells are rinsed with DPBS-Ca—Mg and then treated briefly with Trypsin-EDTA. The Trypsin-EDTA is diluted with growth media, and cells are counted. 38×10^6 cells are re-plated into 150 mm round tissue culture dishes in media containing 0.5 ug/mL doxycycline to induce expression of hTRPML1.
(§2) The day of the experiment cells are lifted from the plates as above and collected by centrifugation. The cells are then suspended in dye loading buffer consisting of Ringer's solution supplemented with 0.1% Pluronic Acid and 1 micromolar Fluo4-AM dye. Cells are loaded for ˜60 minutes in the dark with occasional mixing. The cells are collected by centrifugation, the loading media aspirated, and the cells resuspended in 25 mL Ringer's solution and incubated ˜60 minutes in the dark. The cells are again collected by centrifugation, rinsed in Ringer's Solution and resuspended to […] in modified Ringer's solution containing 10 mM calcium.
(§3) Compounds are dissolved to a concentration of 10 millimolar with DMSO. Compound plates are created by dispensing compounds into 384 well black wall clear bottom plates (Greiner 781091). Positive and negative controls are included on each plate. Typically, different amounts of each compound are tested ranging from 100 nanoMoles (20 micromolar final concentration) decreasing in half-log steps to 31 picoMoles (6 nanomolar final concentration). Each concentration is typically tested in triplicate.
(§4) 50 microliters of dye-loaded cells are dispensed into each well of the compound assay plate created above. The fluorescence in each well is then determined with an excitation wavelength of 480 nm and an emission wavelength of 540 nm using either a Molecular Devices SpectraMax multimode plate reader or a Hamamatsu FDSS/uCell plate imager.
(§5) The resulting fluorescence for each well is exported as an ascii file and loaded into our LIMS for analysis. The percent activity of each compound at each concentration is determined by comparison to the positive and negative control wells included in each plate.
(§6) EC50 values were calculated using a non-linear regression of Prism. In the table, “A” indicates an EC50 of less than 100 nM, “B” indicates an EC50 range from 100 nM to 500 nM; “C” indicates an EC50 range from 500 nM to 2 μM; and “D” indicates an EC50 greater than 2 μM.

TRPML3 = target: T1, TRPML3 (Homo sapiens, UniProt Q8TDD5); experiment: Fluorescent TRPML3 assay (performed as for TRPML1, substituting the TRPML3 subtype); assay type: cell-based
T1 construct: expressed in transfected cells
T1 sequence (Q8TDD5 1-553): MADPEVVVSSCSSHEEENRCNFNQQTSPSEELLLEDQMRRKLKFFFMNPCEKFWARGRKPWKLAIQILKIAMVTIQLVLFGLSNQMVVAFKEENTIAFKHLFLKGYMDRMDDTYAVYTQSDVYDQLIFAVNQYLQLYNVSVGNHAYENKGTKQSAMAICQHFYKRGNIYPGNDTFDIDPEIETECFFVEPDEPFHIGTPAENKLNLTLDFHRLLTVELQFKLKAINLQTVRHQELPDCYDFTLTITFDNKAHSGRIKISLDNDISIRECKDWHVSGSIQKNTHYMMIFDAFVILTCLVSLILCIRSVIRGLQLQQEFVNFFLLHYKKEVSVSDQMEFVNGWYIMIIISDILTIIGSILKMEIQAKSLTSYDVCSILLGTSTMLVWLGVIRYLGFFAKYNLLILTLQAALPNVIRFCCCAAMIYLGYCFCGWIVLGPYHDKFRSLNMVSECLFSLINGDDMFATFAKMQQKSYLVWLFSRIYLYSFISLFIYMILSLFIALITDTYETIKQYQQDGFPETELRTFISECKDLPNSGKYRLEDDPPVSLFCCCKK
Experimental: as §1, §2, §3, §4, §5
TRPML2 and TRPML3 Assays Assays for TRPML2 and TRPML3 were performed as above for TRPML1, by substituting the appropriate TRPML2 or TRPML3 subtype for the TRPML1.
as §6

TRPML1, sequence (Q9GZU1 whole entry L15A/L16A/L577A/L578A, form open): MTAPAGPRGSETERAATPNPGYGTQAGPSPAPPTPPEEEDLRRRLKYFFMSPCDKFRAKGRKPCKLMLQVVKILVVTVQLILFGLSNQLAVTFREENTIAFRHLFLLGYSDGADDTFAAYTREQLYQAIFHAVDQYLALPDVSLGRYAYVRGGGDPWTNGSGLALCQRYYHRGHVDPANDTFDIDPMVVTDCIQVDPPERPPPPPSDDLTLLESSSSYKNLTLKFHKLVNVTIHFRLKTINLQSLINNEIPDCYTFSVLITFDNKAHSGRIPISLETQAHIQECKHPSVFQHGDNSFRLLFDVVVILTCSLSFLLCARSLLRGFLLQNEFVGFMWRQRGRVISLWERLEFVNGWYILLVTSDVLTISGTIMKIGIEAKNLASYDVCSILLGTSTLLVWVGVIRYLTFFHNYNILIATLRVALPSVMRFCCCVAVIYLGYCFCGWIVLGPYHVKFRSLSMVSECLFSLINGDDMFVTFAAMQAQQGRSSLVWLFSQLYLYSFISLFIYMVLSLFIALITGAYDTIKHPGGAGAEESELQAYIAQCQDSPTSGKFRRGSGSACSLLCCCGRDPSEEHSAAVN

| EC50 (TRPML1) [nM] | EC50 (TRPML3) [nM] | EC50 (TRPML1; fluorescent calcium assay) [nM] | EC50 (TRPML3; fluorescent calcium assay) [nM] | SMILES |
| --- | --- | --- | --- | --- |
| 500 to 2000 | > 2000 | – | – | C[C@@H]1CN(c2ncnc3c2c(C(F)(F)F)cn3[C@H]2CCCOC2)[C@@H](C)CN1C(=O)OC(C)(C)C [Compound 631, tert-butyl (2R,5S)-2,5-dimethyl-4-(7-((S)-tetrahydro-2H-pyran-3-yl)-5-(trifluoromethyl)-7H-pyrrolo[2,3-d]pyrimidin-4-yl)piperazine-1-carboxylate] |
| – | – | 500 to 2000 | 100 to 500 | C[C@@H]1CN(C(=O)OC(C)(C)C)CCN1c1ncnc2c1c(N1CCOCC1)cn2-c1cc(F)cc(F)c1 [Compound 227, tert-Butyl (R)-4-(7-(3,5-difluorophenyl)-5-morpholino-7H-pyrrolo[2,3-d]pyrimidin-4-yl)-3-methylpiperazine-1-carboxylate] |
| 500 to 2000 | 100 to 500 | – | – | C[C@@H]1CN(c2ncnc3c2c(C(F)(F)F)cn3[C@H]2CCCC(F)(F)C2)[C@@H](C)CN1C(=O)OC(C)(C)C (single isomer, unassigned) [Compound 713] |
| – | – | 500 to 2000 | 500 to 2000 | CCOC(=O)N1CCN(c2ncnc3c2c(-c2ccccc2F)cn3-c2cncc(OC)c2)[C@@H](C)C1 [Compound 126, ethyl (S)-4-(5-(2-fluorophenyl)-7-(5-methoxypyridin-3-yl)-7H-pyrrolo[2,3-d]pyrimidin-4-yl)-3-methylpiperazine-1-carboxylate] |
| – | – | > 2000 | 100 to 500 | C[C@@H]1CN(c2ncnc3c2c(N2CCC[C@H]2CO)cn3-c2cccc(Cl)c2)CCN1C(=O)OC(C)(C)C [Compound 283, tert-butyl (R)-4-(7-(3-chlorophenyl)-5-((S)-2-(hydroxymethyl)pyrrolidin-1-yl)-7H-pyrrolo[2,3-d]pyrimidin-4-yl)-2-methylpiperazine-1-carboxylate] |
| – | – | 100 to 500 | 100 to 500 | CCOC(=O)N1C[C@H](C)N(c2ncnc3c2c(C2CC2)cn3-c2cccc(Cl)c2)[C@@H](C)C1 [Compound 189, ethyl (3S,5S)-4-(7-(3-chlorophenyl)-5-cyclopropyl-7H-pyrrolo[2,3-d]pyrimidin-4-yl)-3,5-dimethylpiperazine-1-carboxylate] |
| 500 to 2000 | > 2000 | – | – | C[C@@H]1CN(c2ncnc3c2c(C(F)(F)F)cn3[C@@H]2CCCOC2)[C@@H](C)CN1C(=O)OC(C)(C)C [Compound 632, tert-butyl (2R,5S)-2,5-dimethyl-4-(7-((R)-tetrahydro-2H-pyran-3-yl)-5-(trifluoromethyl)-7H-pyrrolo[2,3-d]pyrimidin-4-yl)piperazine-1-carboxylate] |
| < 100 | 500 to 2000 | – | – | C[C@@H]1CN(c2ncnc3c2c(C(F)(F)F)cn3C2CCCC2)[C@@H](C)CN1C(=O)OC(C)(C)C [Compound 626, tert-butyl (2R,5S)-4-(7-cyclopentyl-5-(trifluoromethyl)-7H-pyrrolo[2,3-d]pyrimidin-4-yl)-2,5-dimethylpiperazine-1-carboxylate] |
| – | – | 500 to 2000 | < 100 | C[C@H]1CCCN1c1cn(-c2cccc(Cl)c2)c2ncnc(N3CCN(C(=O)OC(C)(C)C)C[C@@H]3C)c12 [Compound 316, tert-butyl (S)-4-(7-(3-chlorophenyl)-5-((S)-2-methylpyrrolidin-1-yl)-7H-pyrrolo[2,3-d]pyrimidin-4-yl)-3-methylpiperazine-1-carboxylate] |
| – | – | < 100 | < 100 | C[C@@H]1CN(c2ncnc3c2c(C2CC2)cn3-c2cc(C#N)ccn2)[C@@H](C)CN1C(=O)OC(C)(C)C [Compound 394, tert-butyl (2R,5S)-4-(7-(4-cyanopyridin-2-yl)-5-cyclopropyl-7H-pyrrolo[2,3-d]pyrimidin-4-yl)-2,5-dimethylpiperazine-1-carboxylate] |
| – | – | > 2000 | 500 to 2000 | C[C@@H]1CN(C(=O)OC(C)(C)C)CCN1c1ncnc2c1c(C1CCOCC1)cn2-c1cc(F)cc(F)c1 [Compound 467, tert-butyl (R)-4-(7-(3,5-difluorophenyl)-5-(tetrahydro-2H-pyran-4-yl)-7H-pyrrolo[2,3-d]pyrimidin-4-yl)-3-methylpiperazine-1-carboxylate] |
| 100 to 500 | < 100 | – | – | Cc1cn(-c2cncc(C#N)c2)c2ncnc(N3CCN(C(=O)OC(C)(C)C)C[C@@H]3C)c12 [Compound 694, tert-butyl (S)-4-(7-(5-cyanopyridin-3-yl)-5-methyl-7H-pyrrolo[2,3-d]pyrimidin-4-yl)-3-methylpiperazine-1-carboxylate] |
| – | – | < 100 | < 100 | CC(C)(C)OC(=O)N1CCN(c2ncnc3c2c(C2CC2)cn3-c2cc(C#N)ccn2)CC1(C)C [Compound 395, tert-butyl 4-(7-(4-cyanopyridin-2-yl)-5-cyclopropyl-7H-pyrrolo[2,3-d]pyrimidin-4-yl)-2,2-dimethylpiperazine-1-carboxylate] |
| – | – | 100 to 500 | 100 to 500 | C[C@H]1CN(C(=O)OCC(F)(F)F)CCN1c1ncnc2c1c(-c1ccccn1)cn2-c1cc(C#N)ccn1 [Compound 372, 2,2,2-trifluoroethyl (S)-4-(7-(4-cyanopyridin-2-yl)-5-(pyridin-2-yl)-7H-pyrrolo[2,3-d]pyrimidin-4-yl)-3-methylpiperazine-1-carboxylate] |
| – | – | 100 to 500 | < 100 | N#Cc1ccnc(-n2cc(-c3ccccc3F)c3c(N4CCN(C(=O)OCC(F)(F)F)CC4)ncnc32)c1 [Compound 373, 2,2,2-trifluoroethyl 4-(7-(4-cyanopyridin-2-yl)-5-(2-fluorophenyl)-7H-pyrrolo[2,3-d]pyrimidin-4-yl)piperazine-1-carboxylate] |
| – | – | > 2000 | 100 to 500 | C[C@H]1CN(C(=O)OC(C)(C)C)CCN1c1ncnc2c1c(C1CC1)cn2-c1ncc(C#N)s1 [Compound 397, tert-butyl (S)-4-(7-(5-cyanothiazol-2-yl)-5-cyclopropyl-7H-pyrrolo[2,3-d]pyrimidin-4-yl)-3-methylpiperazine-1-carboxylate] |
| 500 to 2000 | 500 to 2000 | – | – | C[C@@H]1CN(c2ncnc3c2c(C(F)F)cn3C2CCC(C#N)C2)[C@@H](C)CN1C(=O)OC(C)(C)C (stereo partly drawn) [Compound 634] |
| – | – | < 100 | 100 to 500 | CC(C)C(=O)N1CCN(c2nccc3c2c(-c2ccccc2F)cn3-c2cc(C#N)ccn2)[C@@H](C)C1 [Compound 450, (S)-2-(3-(2-fluorophenyl)-4-(4-isobutyryl-2-methylpiperazin-1-yl)-1H-pyrrolo[3,2-c]pyridin-1-yl)isonicotinonitrile] |
| – | – | < 100 | < 100 | CC(C)(C)OC(=O)N1CCN(c2ncnc3c2c(-c2ccccc2F)cn3-c2nccc(C#N)n2)CC1 [Compound 459] |
| 500 to 2000 | > 2000 | – | – | C[C@@H]1CN(c2ncnc3c2c(C(F)(F)F)cn3C2CCOCC2)[C@@H](C)CN1C(=O)OC(C)(C)C [Compound 630, tert-butyl (2R,5S)-2,5-dimethyl-4-(7-(tetrahydro-2H-pyran-4-yl)-5-(trifluoromethyl)-7H-pyrrolo[2,3-d]pyrimidin-4-yl)piperazine-1-carboxylate] |

| SMILES | EC50 (TRPML1) [nM] | EC50 (TRPML3) [nM] | EC50 (TRPML1; fluorescent calcium assay) [nM] | EC50 (TRPML3; fluorescent calcium assay) [nM] |
| --- | --- | --- | --- | --- |
| C[C@@H]1CN(c2ncnc3c2c(OC2CCC2)cn3-c2cc(C#N)ccn2)[C@@H](C)CN1C(=O)OC(C)(C)C [Compound 508, tert-butyl (2R,5S)-4-(7-(4-cyanopyridin-2-yl)-5-cyclobutoxy-7H-pyrrolo[2,3-d]pyrimidin-4-yl)-2,5-dimethylpiperazine-1-carboxylate] | < 100 | < 100 | – | – |
